# Data: ChEMBL document CHEMBL1147333, “Brominated indole alkaloids from the marine tunicate Pseudodistoma arborescens” (J Nat Prod, 1993)
# System: KB
# Assay: Cytotoxicity against human KB cells
# Assay type: functional, cell-based
smiles,measurement,value
CN1CCc2c3n(c4cc(Br)ccc24)[C@H](O)CCC[C@@H]31 [ARBORESCIDINE D],IC50,3 µg/mL
